Test results published in patent publication US20250144186A1, “NOVEL THERAPEUTIC USES OF GARDNERELLA ENDOLYSINS” (priority 2022, published 2025).
Converted amounts (≈) assume the structure as drawn. “And” between values parts separate entries of the source, which are not always exact repeats. Equal values may be shown once. Read-outs that look alike come from different tables or passages of the source.

Columns and labels:
[1] = test system: Gardnerella leopoldii; test: MIC / MBC99.5 assessment in suspension; assay type: cell-based; conditions: Gardnerella leopoldii
Description: (§1) The minimum inhibitory concentration (MIC), which is a standard measure of the activity of antimicrobials, was determined according to the Clinical and Laboratory Standards Institute protocol (2018) Methods for Antimicrobial Susceptibility Testing of Anaerobic Bacteria (Carpenter et al., 2018). […] Controls for growth in the absence of antimicrobials were also included. OD600 was recorded by a microplate reader (Tecan, Grodig, Austria) after incubation at 37° C. for 48 h or, for some fast-growing strains, after incubation for 24 h. Absence of growth was defined as OD600≤0.14. […] MIC readout and MBC99.5 spotting were performed after 72 h incubation for H2B10B11.
(§2) However, topical intravaginal antibiotic administration is recommended for BV therapy, which allows to reach concentrations of active ingredients in the mg/mL range. […] Abbreviations: n.d., not determined; SJHB, St. Jan Hospital Bruges.
(§3) MIC90 is defined as the MIC value for 90% of the tested strains. For PM-477 (H2B10), the resistance breakpoint is not defined, therefore a “% resistant” is not defined (n.d.).

[2] = test system: Gardnerella piotii; test: MIC / MBC99.5 assessment in suspension; assay type: cell-based; conditions: Gardnerella piotii
Description: as §1, §2, §3

[3] = test system: Six Gardnerella strains; test: microbe, parasite or virus in culture; assay type: cell-based, Gardnerella spp.
Description: The final volume of the reaction was 100 µL and the reactions were performed in triplicate in 384-well plates. The OD600 was measured using a microplate reader (Tecan, Grodig, Austria) to generate timepoint 0 h baseline values. The reactions were incubated anaerobically for 24 h, then the OD600 was measured again, and the MIC was measured as the lowest concentration with OD600<0.14. […] This process was repeated for a maximum of 25 rounds. In each round, the input CFU/mL was determined by quantitative plating.
In parallel, one representative of G. vaginalis (ATCC 14018^T) was passaged 25 times with PM-477 (H2B10).

[4] = test system: Gardnerella vaginalis; test: microbe, parasite or virus in culture; assay type: cell-based; conditions: Gardnerella vaginalis
Description: as §1, §2, §3

[5] = test system: Gardnerella swidsinskii; test: microbe, parasite or virus in culture; assay type: cell-based
Description: as §1, §2, §3

[6] = test system: All Gardnerella; test: MIC assessment in suspension, panel of 22 strains; assay type: cell-based, Gardnerella spp.; conditions: for MIC90: N=22 strains
Description: as §1, §2, §3

[7] = test system: passaged G. vaginalis biofilm; test: MBEC on biofilms of passaged strains; assay type: cell-based, Gardnerella vaginalis
Description: Gardnerella spp. (see figures for strain specification) was resuspended in brain heart infusion broth supplemented with 2% (w/v) gelatin, 0.5% yeast extract (w/v), 0.1% starch (w/v) and 0.25% glucose (w/v) (sBHIG). Passaged strains were resuspended in unbuffered NYCB supplemented with 1% glucose (w/v) (sNYCB). The OD600 was set to 0.1 (approx. 10^7-10^8 CFU/mL) and the cell suspension was diluted 1:10 in growth medium as input for biofilm formation. A total of 200 μL of the respective bacterial suspensions was added to 96-well flat bottom plates (tissue-culture treated, Sigma-Aldrich). The biofilms were grown under anaerobic conditions at 37° C. for 40 to 72 hours, depending on the isolate. Subsequently, the supernatant was removed, and the biofilm was treated with antimicrobials dissolved in sBHIG (at pH 5 for treatment with PM-477 (H2B10), and unbuffered for treatment with antibiotics) in 100 μL and incubated anaerobically at 37° C. for another 24 hours. After the treatment, the biofilms were washed twice with 200 μL 1x PBS and dissolved by vigorous pipetting (40x up and down). Serial dilutions of the dissolved cells were spotted on chocolate agar plates. The plates were incubated anaerobically for two to three days and the minimum biofilm eradication concentration (MBEC) of the endolysin or the antibiotics in use were calculated.
All MICs determined after 48 h of incubation.

For `Cc1ncc([N+](=O)[O-])n1CCO` [MDZ, metronidazole], the MIC ([1]; G. leopoldii (BV217) UGent BV217.1, suspension, read-out: MIC) was 256 mg/L (≈ 1500 µM), the “N resistant (%)” value ([1]; N=3, resistance ≥32 μg/mL MDZ) was 100% and the N resistant ([1]; N=3, resistance ≥32 μg/mL MDZ, ≥8 μg/mL CLI) was 3. For the same compound, the MIC90 ([1]; N=3 strains, read-out: MIC90) was over 256 mg/L, the MBC ([1]; read-out: MBC99.5) was 512 mg/L (≈ 2990 µM) and the MIC ([2]; 48 h, read-out: MIC before passaging) was 32 mg/L (≈ 187 µM). For the same compound, the MBC ([2]; G. piotii (BV049) UGent BV049.1) was 32 mg/L (≈ 187 µM), the MBC ([2]; G. piotii (BV154) UGent BV154.1) was 32 mg/L (≈ 187 µM) and the MBC ([2]; G. piotii (FB041) UGent FB041) was 64 mg/L (≈ 374 µM). It also gave an MIC ([2]; G. piotii (FB041) UGent FB041, suspension, read-out: MIC) of 32 mg/L (≈ 187 µM), an MBC ([2]; G. piotii (Gp17) UGent 18.01(T)) of 64 mg/L (≈ 374 µM) and an MIC ([2]; G. piotii (Gp17) UGent 18.01(T), suspension, read-out: MIC) of 32 mg/L (≈ 187 µM). The MIC ([2]; G. piotii (Gp22) UGent 21.28, suspension, read-out: MIC) was 64 mg/L (≈ 374 µM), the MBC ([2]; G. piotii (P80275) UGent P80275) was 64 mg/L (≈ 374 µM) and the MIC ([2]; G. piotii (P80275) UGent P80275, suspension, read-out: MIC) was 16 mg/L (≈ 93.5 µM). The “N resistant (%)” value ([2]; N=7, resistance ≥32 μg/mL MDZ) was 57%, the N resistant ([2]; N=7, resistance ≥32 μg/mL MDZ, ≥8 μg/mL CLI) was 4 and the MBC ([2]; G. piotii (BV140) UGent BV140.2) was over 512 mg/L. The MIC ([3]; Gardnerella, read-out: MIC after 9 rounds of passaging, 4 out of 6 strains, maximal concentration in use) was over 512 mg/L, the “pre-passaging MIC range” value ([3]; six Gardnerella strains before passaging) was 8 to 256 mg/L and the MIC90 [4] was 64 mg/L (≈ 374 µM). It also gave an MIC ([4]; 48 h, read-out: MIC before passaging, G. vaginalis (ATCC 14018T), 48 h incubation) of 8 mg/L (≈ 46.7 µM), an MIC ([4]; 48 h, read-out: MIC before passaging, G. vaginalis (UGent 09.07), 48 h incubation) of 64 mg/L (≈ 374 µM) and an MIC ([4]; 48 h, read-out: MIC before passaging, G. vaginalis (UGent BV50), 48 h incubation) of 32 mg/L (≈ 187 µM). It also gave an MBC ([4]; ATCC14018, 24 h, read-out: MBC99.5, G. vaginalis (Gv9) ATCC 14018(T), reduces CFU by 99.5% within 24 h) of 16 mg/L (≈ 93.5 µM), an MIC ([4]; ATCC14018, G. vaginalis (Gv9) ATCC 14018(T), suspension) of 8 mg/L (≈ 46.7 µM) and an MIC ([4]; G. vaginalis (BV50) UGent BV50.1, suspension) of 32 mg/L (≈ 187 µM). For the same compound, the MIC ([4]; G. vaginalis (FB049) UGent FB049-01, suspension) was 16 mg/L (≈ 93.5 µM), the MIC ([4]; G. vaginalis (FB061) UGent FB061-03, suspension, read-out: MIC) was 8 mg/L (≈ 46.7 µM) and the MBC ([4]; G. vaginalis (FB061) UGent FB061-03, read-out: MBC99.5) was 32 mg/L (≈ 187 µM). It also gave an MIC ([4]; G. vaginalis (Gv1) UGent 09.07, suspension, read-out: MIC) of 64 mg/L (≈ 374 µM), an MBC ([4]; G. vaginalis (Gv1) UGent 09.07, read-out: MBC99.5) of 512 mg/L (≈ 2990 µM) and an MIC ([4]; G. vaginalis (Gv5) UGent 09.01, suspension, read-out: MIC) of 8 mg/L (≈ 46.7 µM). It also gave an MBC ([4]; G. vaginalis (Gv5) UGent 09.01, read-out: MBC99.5) of 512 mg/L (≈ 2990 µM), an MIC ([4]; G. vaginalis (Gv8) UGent 25.49, suspension, read-out: MIC) of 8 mg/L (≈ 46.7 µM) and an MBC ([4]; G. vaginalis (Gv8) UGent 25.49, read-out: MBC99.5) of 32 mg/L (≈ 187 µM). For the same compound, the “MIC Range” value ([4]; N=8 strains) was 8 to 64 mg/L, the MBC ([4]; read-out: MBC99.5, G. vaginalis (BV111) UGent BV111.5) was 64 mg/L (≈ 374 µM) and the MBC ([4]; read-out: MBC99.5, G. vaginalis (FB049) UGent FB049-01) was 64 mg/L (≈ 374 µM). It also gave an MBC99.5 ([5]; G. swidsinskii (BV7) UGent BV7.1) of over 512 mg/L, an MIC90 ([5]; Gardnerella swidsinskii) of over 256 mg/L and an MIC ([5]; Gardnerella swidsinskii, 48 h, read-out: MIC before passaging, G. swidsinskii (GS 9838-1T), 48 h incubation) of 256 mg/L (≈ 1500 µM). For the same compound, the MIC ([5]; Gardnerella swidsinskii, 48 h, read-out: MIC before passaging, G. swidsinskii (UGent BV 7.1), 48 h incubation) was 256 mg/L (≈ 1500 µM), the MIC ([5]; Gardnerella swidsinskii, G. swidsinskii (BV7) UGent BV7.1, suspension, read-out: MIC) was 256 mg/L (≈ 1500 µM) and the MIC ([5]; Gardnerella swidsinskii, G. swidsinskii (BV139) UGent BV139.3, suspension, read-out: MIC) was 256 mg/L (≈ 1500 µM). The MIC ([5]; Gardnerella swidsinskii, G. swidsinskii (Gs23) GS 10234, suspension) was 64 mg/L (≈ 374 µM), the MIC ([5]; Gardnerella swidsinskii, G. swidsinskii (Gs24) GS 9838-1(T), suspension, read-out: MIC) was 256 mg/L (≈ 1500 µM) and the MBC ([5]; Gardnerella swidsinskii, read-out: MBC99.5, G. swidsinskii (BV139) UGent BV139.3) was 256 mg/L (≈ 1500 µM). For the same compound, the MBC ([5]; Gardnerella swidsinskii, G. swidsinskii (Gs24) GS 9838-1(T), read-out: MBC99.5) was over 512 mg/L, the “N resistant (%)” value ([6]; N=22, resistance ≥32 μg/mL MDZ) was 59% and 60% and the N resistant ([6]; N=22, resistance ≥32 μg/mL MDZ, ≥8 μg/mL CLI) was 13. It also gave an MIC90 [6] of over 256 mg/L, an MIC90 ([6]; read-out: MIC90) of over 256 mg/L and an MBEC passaged ([7]; G. vaginalis (ATCC 14018T) passaged with MDZ) of over 2048 µg/mL. It also gave an MBEC passaged ([7]; G. vaginalis (UGent 09.07) passaged 8 times with MDZ-OH) of over 2048 µg/mL and an MBEC passaged ([7]; G. vaginalis (UGent BV50) passaged with MDZ-OH) of over 2048 µg/mL.
